Test results from ChEMBL document CHEMBL5634091, “Cantharidin analogue alleviates dextran sulfate sodium-induced colitis in mice by inhibiting the activation of NF-κB signaling” (Eur J Med Chem, 2023).
pIC50: −log10 of the molar value. Activity calls are given as the source filed them. No cut-off for these calls is given here.

Tests used:
HCT-116 [1] = experiment: Activation of MAPK signaling pathway in TNF-alpha stimulated human HCT-116 cells assessed as increase in phospho-ERK protein expression at 50 uM preincubated for 4 hrs and followed TNF-alpha stimulation and measured after 10 mins by Western blot analysis; assay type: cell-based; conditions: filed as activator, time 250.0 min
HCT-116 [2] = experiment: Inhibition of TNF-alpha induced NF-kB activation in human HCT-116 cells assessed as decrease in phosphorylated IKK protein expression preincubated for 4 hrs and followed TNF-alpha stimulation and measured after 10 mins by Western blot analysis; assay type: cell-based; conditions: dose 12.5-50 µM, time 250.0 min
Mus musculus [3] = experiment: Anti-inflammatory activity in C57BL/6 mouse model of DSS-induced acute ulcerative colitis assessed as reduction in histopathological changes of granulocyte infiltration at 100 to 300 mg/kg, po administered once a day for 7 days by H and E staining based analysis; assay type: functional, organism-based; conditions: dose 100-300 mg/kg, time 7.0 day
Mus musculus [4] = experiment: Anti-inflammatory activity in po dosed C57BL/6 mouse model of DSS-induced acute ulcerative colitis assessed as reduction in IL-17A mRNA expression in colon administered once a day for 7 days by RT-PCR analysis; assay type: functional, organism-based; conditions: dose 100-300 mg/kg, time 7.0 day
[5] = Toxicity in C57BL/6 mouse model of DSS-induced acute ulcerative colitis assessed as effect on lung tissue at 100 to 300 mg/kg, po administered once a day for 7 days by H and E staining based analysis; assay type: organism-based; conditions: in vivo, 168 h, dose 100-300 mg/kg, time 7 day
DLD-1 [6] = experiment: Effect on NF-kappaB p65 protein expression in TNF-alpha stimulated human DLD-1 cells at 12.5 to 50 uM preincubated for 4 hrs and followed TNF-alpha stimulation and measured after 10 mins by Western blot analysis; assay type: functional, cell-based; conditions: dose 12.5-50 µM, time 250.0 min
Mus musculus [7] = experiment: Anti-inflammatory activity in C57BL/6 mouse model of DSS-induced acute ulcerative colitis assessed as reduction in p65 expression in colon at 100 to 300 mg/kg, po administered once a day for 7 days by immunohistochemical analysis; assay type: functional, organism-based; conditions: dose 100-300 mg/kg, time 7.0 day
DLD-1 [8] = experiment: Cytotoxicity against human DLD-1 cells assessed as induction of stress response at 50 uM; assay type: toxicity, cell-based; conditions: dld-1, 50 µM
DLD-1 [9] = experiment: Upregulation of ERK protein expression in TNF-alpha stimulated human DLD-1 cells at 50 uM preincubated for 4 hrs and followed TNF-alpha stimulation and measured after 10 mins by Western blot analysis; assay type: functional, cell-based; conditions: time 250.0 min
[10] = Toxicity in Kunming mouse assessed as increase in body weight at 1852 mg/kg, po measured for 15 days (reference value: 12.38%); assay type: organism-based; conditions: in vivo, 360 h, time 15 day
[11] = Toxicity in Kunming mouse assessed as number of mouse survived at 1852 mg/kg, po measured for 15 days; assay type: organism-based; conditions: in vivo, 360 h, time 15 day
[12] = Toxicity in Kunming mouse assessed as increase in body weight at 1111 mg/kg, po measured for 15 days (reference value: 12.38%); assay type: organism-based; conditions: in vivo, 360 h, time 15 day
[13] = Toxicity in C57BL/6 mouse model of DSS-induced acute ulcerative colitis assessed as effect on liver tissue at 100 to 300 mg/kg, po administered once a day for 7 days by H and E staining based analysis; assay type: organism-based; conditions: in vivo, 168 h, dose 100-300 mg/kg, time 7 day
[14] = Inhibition of TNF-alpha induced NF-kappaB activation in HEK293T cells preincubated for 4 hrs and followed by TNF-alpha stimulation and measured after 4 hrs by dual-luciferase reporter assay; assay type: cell-based; conditions: Homo sapiens, HEK-293T
DLD-1 [15] = experiment: Activation of MAPK signaling pathway in TNF-alpha stimulated human DLD-1 cells assessed as increase in phospho-ERK protein expression at 50 uM preincubated for 4 hrs and followed TNF-alpha stimulation and measured after 10 mins by Western blot analysis; assay type: cell-based; conditions: filed as activator, time 250.0 min
HCT-116 [16] = experiment: Effect on NF-kappaB p65 protein expression in TNF-alpha stimulated human HCT-116 cells at 12.5 to 50 uM preincubated for 4 hrs and followed TNF-alpha stimulation and measured after 10 mins by Western blot analysis; assay type: functional, cell-based; conditions: dose 12.5-50 µM, time 250.0 min
DLD-1 [17] = experiment: Inhibition of TNF-alpha induced NF-kB activation in human DLD-1 cells assessed as decrease in phosphorylated IkappaBalpha protein expression preincubated for 4 hrs and followed TNF-alpha stimulation and measured after 10 mins by Western blot analysis; assay type: cell-based; conditions: dose 12.5-50 µM, time 250.0 min
HCT-116 [18] = experiment: Cytotoxicity against human HCT-116 cells assessed as induction of stress response at 50 uM; assay type: toxicity, cell-based; conditions: hct-116, 50 µM
DLD-1 [19] = experiment: Inhibition of TNF-alpha-induced NF-kappaB nuclear translocation in human DLD-1 cells preincubated for 4 hrs followed by TNF-alpha stimulation and measured after 30 mins by immunofluorescence staining based laser scanning confocal microscopic analysis; assay type: cell-based; conditions: dose 25-50 µM, time 4.5 hrs
RAW264.7 = experiment: Antiinflammatory activity in mouse RAW264.7 cells assessed as inhibition in LPS/IFNgamma-induced NO production preincubated for 2 hrs followed by LPS/IFNgamma stimulation and measured after 24 hrs by Griess reagent based assay; assay type: functional, cell-based
Mus musculus [20] = experiment: Anti-inflammatory activity in po dosed C57BL/6 mouse model of DSS-induced acute ulcerative colitis assessed as reduction in TNFalpha mRNA expression in colon administered once a day for 7 days by RT-PCR analysis; assay type: functional, organism-based; conditions: dose 100-300 mg/kg, time 7.0 day
Mus musculus [21] = experiment: Anti-inflammatory activity in po dosed C57BL/6 mouse model of DSS-induced acute ulcerative colitis assessed as reduction in CCL2 mRNA expression in colon administered once a day for 7 days by RT-PCR analysis; assay type: functional, organism-based; conditions: dose 100-300 mg/kg, time 7.0 day
[22] = Selectivity index, ratio of CC50 for cytotoxicity against TNF-alpha induced HEK293T cells to IC50 for inhibition of TNF-alpha induced NF-kappaB activation in HEK293T cells; assay type: toxicity, cell-based; conditions: human, HEK293T cells induced with TNF-alpha; read-out: Ratio IC50
Mus musculus [23] = experiment: Anti-inflammatory activity in C57BL/6 mouse model of DSS-induced acute ulcerative colitis assessed as increase in colon length at 100 to 300 mg/kg, po administered once a day for 7 days; assay type: functional, organism-based; conditions: dose 100-300 mg/kg, time 7.0 day
Mus musculus [24] = experiment: Anti-inflammatory activity in po dosed C57BL/6 mouse model of DSS-induced acute ulcerative colitis assessed as reduction in COX2 mRNA expression in colon administered once a day for 7 days by RT-PCR analysis; assay type: functional, organism-based; conditions: dose 100-300 mg/kg, time 7.0 day
HCT-116 [25] = experiment: Upregulation of JNK protein expression in TNF-alpha stimulated human HCT-116 cells at 50 uM preincubated for 4 hrs and followed TNF-alpha stimulation and measured after 10 mins by Western blot analysis; assay type: functional, cell-based; conditions: time 250.0 min
DLD-1 [26] = experiment: Inhibition of TNF-alpha induced NF-kB activation in human DLD-1 cells assessed as decrease in phosphorylated p65 protein expression preincubated for 4 hrs and followed TNF-alpha stimulation and measured after 10 mins by Western blot analysis; assay type: cell-based; conditions: dose 12.5-50 µM, time 250.0 min
[27] = Selectivity index, ratio of CC50 for cytotoxicity against LPS/IFNgamma induced mouse RAW264.7 cells to IC50 for antiinflammatory activity in mouse RAW264.7 cells assessed as inhibition in LPS/IFNgamma-induced NO production; assay type: toxicity, cell-based; conditions: RAW264.7 cells induced with LPS/IFNgamma, read-out: Ratio IC50
Mus musculus [28] = experiment: Anti-inflammatory activity in C57BL/6 mouse model of DSS-induced acute ulcerative colitis assessed as increase in IL-10 mRNA expression in colon at 100 to 300 mg/kg, po administered once a day for 7 days by RT-PCR analysis; assay type: functional, organism-based; conditions: dose 100-300 mg/kg, time 7.0 day

COC(=O)C1=C(C(=O)OC)C2OC1CC2C#Cc1ccc(C)cc1 (centres undefined)
Activity (HCT-116 [1]): Active
inhibition (HCT-116 [2]): Dose-Dependent Effect
Activity (Mus musculus [3]): Active
Activity (Mus musculus [4]): Dose-Dependent Effect
Activity [5]: Non-Toxic
Activity (DLD-1 [6]): inactive
Activity (Mus musculus [7]): Active
Activity (DLD-1 [8]): Toxic
Activity (DLD-1 [9]): Active
Activity [10]: 15.38%
Activity [11]: 0
Activity [12]: 6.01%
Activity [13]: Non-Toxic
pIC50 [14]: 4.79
Activity (DLD-1 [15]): Active
Activity (HCT-116 [16]): inactive
inhibition (DLD-1 [17]): Dose-Dependent Effect
Activity (HCT-116 [18]): Toxic
inhibition (DLD-1 [19]): Dose-Dependent Effect
pIC50 (RAW264.7): 5.58
Activity (Mus musculus [20]): Dose-Dependent Effect
Activity (Mus musculus [21]): Dose-Dependent Effect
selectivity ratio [22]: 5.85
Activity (Mus musculus [23]): Active
Activity (Mus musculus [24]): Dose-Dependent Effect
Activity (HCT-116 [25]): Active
inhibition (DLD-1 [26]): Dose-Dependent Effect
selectivity ratio [27]: 4.57
Activity (Mus musculus [28]): Active
